Laboratory results taken from patent US20260355212A1 (priority 2022, published 2026).
Where two headings read alike, the source gives them in different places.

Legend:
[1] = biological target: HCoV-229E Mpro (Human coronavirus 229E, UniProt P0C6X1); assay: HCoV-229E Mpro enzymatic inhibition assay (fluorescence); assay type: biochemical
[2] = biological target: HCoV-HKU1 Mpro (Human coronavirus HKU1, UniProt P0C6X2); assay: HCoV-HKU1 Mpro enzymatic inhibition assay (fluorescence); assay type: biochemical
Procedure, shortened: (§1)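 Steps: compound dilution series (3-fold, 10 doses) dispensed; Mpro added and pre-incubated 30 min at room temperature; substrate added; plates incubated 60 min at 30 °C; fluorescence measured at Ex/Em=340 nm/490 nm.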

[3] = biological target: SARS-CoV-1 Mpro (Severe acute respiratory syndrome coronavirus, UniProt P0C6X7); assay: biochemical
[4] = biological target: MERS Mpro (Middle East respiratory syndrome-related coronavirus, UniProt K9N7C7); assay: biochemical; design: species or system MERS-CoV
[5] = biological target: HCoV-OC43 Mpro (Human coronavirus OC43, UniProt P0C6X6); assay: HCoV-OC43 Mpro enzymatic inhibition assay (fluorescence); assay type: biochemical
Procedure, shortened: as §1

[6] = biological target: SARS-CoV-2 Mpro (Severe acute respiratory syndrome coronavirus 2, UniProt P0DTD1); assay: SARS-CoV-2 Mpro enzymatic inhibition assay (fluorescence); assay type: biochemical
Procedure, shortened: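 A fluorescence readout (340 nm excitation, 490 nm emission) was taken after the substrate reaction ran 60 min at 30° C. Before substrate addition, E. coli-expressed protease and compound (3-fold dilutions, 10 doses, duplicates) sat together 30 min at room temperature. Percent inhibition was fitted by variable-slope nonlinear regression to give IC50.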

[7] = biological target: HCoV-NL63 Mpro (Human coronavirus NL63, UniProt P0C6X5); assay: HCoV-NL63 Mpro enzymatic inhibition assay (fluorescence); assay type: biochemical
Procedure, shortened: as §1

[8] = mean, 25 nM protein, 25 μM substrate, 30 min pre-incubation, 60 min at 30° C., read-out: Mpro_SARS-CoV-2 mean IC50

Chain of HCoV-OC43 Mpro (P0C6X6 3247-3549 limits assumed): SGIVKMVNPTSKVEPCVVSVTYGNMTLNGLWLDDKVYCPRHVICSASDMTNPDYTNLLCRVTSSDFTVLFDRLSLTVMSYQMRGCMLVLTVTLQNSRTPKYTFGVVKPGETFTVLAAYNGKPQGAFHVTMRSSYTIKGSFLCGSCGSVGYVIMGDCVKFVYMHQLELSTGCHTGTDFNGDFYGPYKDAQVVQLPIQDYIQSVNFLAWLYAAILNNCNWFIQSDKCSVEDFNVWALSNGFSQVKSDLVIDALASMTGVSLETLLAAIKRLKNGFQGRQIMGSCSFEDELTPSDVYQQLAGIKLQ
Chain of HCoV-NL63 Mpro (P0C6X5 2940-3242 limits assumed): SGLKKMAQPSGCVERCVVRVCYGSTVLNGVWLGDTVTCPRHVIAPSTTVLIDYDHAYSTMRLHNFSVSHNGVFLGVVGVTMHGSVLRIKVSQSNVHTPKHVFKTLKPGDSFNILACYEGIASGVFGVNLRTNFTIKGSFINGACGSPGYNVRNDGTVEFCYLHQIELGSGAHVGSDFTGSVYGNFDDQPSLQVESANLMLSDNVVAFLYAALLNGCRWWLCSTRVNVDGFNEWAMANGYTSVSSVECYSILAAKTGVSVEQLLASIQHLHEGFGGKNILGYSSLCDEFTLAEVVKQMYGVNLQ
Chain of HCoV-HKU1 Mpro (P0C6X2 3335-3637 limits assumed): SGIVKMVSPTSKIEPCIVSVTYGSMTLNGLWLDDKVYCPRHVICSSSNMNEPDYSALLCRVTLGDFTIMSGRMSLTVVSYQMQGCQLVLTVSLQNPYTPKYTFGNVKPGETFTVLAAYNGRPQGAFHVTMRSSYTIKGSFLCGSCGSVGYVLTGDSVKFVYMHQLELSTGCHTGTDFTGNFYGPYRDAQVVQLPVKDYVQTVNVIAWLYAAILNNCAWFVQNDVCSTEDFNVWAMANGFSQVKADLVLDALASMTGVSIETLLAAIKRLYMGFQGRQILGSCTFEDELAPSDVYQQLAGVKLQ
Chain of HCoV-229E Mpro (P0C6X1 2966-3267 limits assumed): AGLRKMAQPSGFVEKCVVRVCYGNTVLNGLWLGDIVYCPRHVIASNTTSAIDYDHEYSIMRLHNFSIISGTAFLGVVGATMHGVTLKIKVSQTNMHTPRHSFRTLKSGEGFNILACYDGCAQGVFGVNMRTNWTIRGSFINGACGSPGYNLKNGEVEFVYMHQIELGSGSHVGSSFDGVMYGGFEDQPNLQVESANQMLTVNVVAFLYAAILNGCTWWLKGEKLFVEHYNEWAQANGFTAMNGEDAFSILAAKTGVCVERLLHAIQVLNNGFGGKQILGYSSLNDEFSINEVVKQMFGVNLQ
Chain of MERS Mpro (K9N7C7 3248-3553 limits assumed): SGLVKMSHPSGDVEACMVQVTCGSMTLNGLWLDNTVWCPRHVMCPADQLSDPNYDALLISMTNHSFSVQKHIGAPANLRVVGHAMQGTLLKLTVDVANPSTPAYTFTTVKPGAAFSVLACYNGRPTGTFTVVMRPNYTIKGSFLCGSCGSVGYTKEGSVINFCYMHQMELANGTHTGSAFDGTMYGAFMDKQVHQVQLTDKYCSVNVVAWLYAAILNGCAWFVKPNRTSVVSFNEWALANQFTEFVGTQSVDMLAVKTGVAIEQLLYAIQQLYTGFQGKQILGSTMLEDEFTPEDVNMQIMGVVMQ

Row | Compound | IC50 [1] [µM] | IC50 [2] [µM] | IC50 [3] [µM] | IC50 [4] [µM] | IC50 [5] [µM] | IC50 [6, 8] [µM] | IC50 [7] [µM] | IC50 [6] [µM]
1 | CC1(C)[C@@H]2[C@@H](C(=O)N[C@H](C=O)C[C@@H]3CCNC3=O)N(C(=O)C3CCCC3)C[C@@H]21 [Compound 124, (1R,2S,5S)-3-(Cyclopentanecarbonyl)-6,6-dimethyl-N—((S)-1-oxo-3-((S)-2-oxopyrrolidin-3-yl)propan-2-yl)-3-azabicyclo[3.1.0]hexane-2-carboxamide] | 0.162 | 0.407 | 0.473 | 2 | 0.49 | 0.211 | 2.5 | –
2 | CC(C)c1cccc2[nH]c(C(=O)N3C[C@H]4[C@@H]([C@H]3C(=O)N[C@H](C=O)C[C@@H]3CCNC3=O)C4(C)C)cc12 [Compound 34, (1R,2S,5S)-3-(4-isopropyl-1H-indole-2-carbonyl)-6,6-dimethyl-N—((S)-1-oxo-3-((S)-2-oxopyrrolidin-3-yl)propan-2-yl)-3-azabicyclo[3.1.0]hexane-2-carboxamide] | 0.0377 | 0.0208 | 0.0353 | 0.278 | 0.0579 | 0.0198 | 0.0653 | –
3 | O=C[C@H](C[C@@H]1CCNC1=O)NC(=O)[C@@H]1C[C@@H](C2CCCCC2)CN1C(=O)c1cc2cccc(F)c2[nH]1 [Compound 71, (2S,4S)-4-cyclohexyl-1-(7-fluoro-1H-indole-2-carbonyl)-N—((S)-1-oxo-3-((S)-2-oxopyrrolidin-3-yl)propan-2-yl)pyrrolidine-2-carboxamide] | 0.0535 | 0.0349 | 0.0956 | 1.42 | 0.133 | – | 0.414 | 0.0304
4 | CC1(C)[C@@H]2[C@@H](C(=O)N[C@H](C=O)C[C@@H]3CCNC3=O)N(C(=O)CC3CCCCC3(F)F)C[C@@H]21 (stereo partly drawn) [Compound 64, (1R,2S,5S)-3-(2-(2,2-Difluorocyclohexyl)acetyl)-6,6-dimethyl-N—((S)-1-oxo-3-((S)-2-oxopyrrolidin-3-yl)propan-2-yl)-3-azabicyclo[3.1.0]hexane-2-carboxamide] | 0.0532 | 0.0465 | 0.0466 | 0.224 | 0.0658 | – | 0.105 | 0.027
5 | CC1(C)[C@@H]2[C@@H](C(=O)N[C@H](C=O)C[C@@H]3CCCNC3=O)N(C(=O)c3cc4cccc(Cl)c4[nH]3)C[C@@H]21 [Compound 25, (1R,2S,5S)-3-(7-chloro-1H-indole-2-carbonyl)-6,6-dimethyl-N—((S)-1-oxo-3-((S)-2-oxopiperidin-3-yl)propan-2-yl)-3-azabicyclo[3.1.0]hexane-2-carboxamide] | 0.0338 | 0.0302 | 0.024 | 0.14 | 0.043 | – | 0.0538 | 0.0167
6 | O=C[C@H](C[C@@H]1CCNC1=O)NC(=O)[C@@H]1C[C@@H]2CCC[C@@H]2N1C(=O)c1cc2ccccc2[nH]1 [Compound 129, (2S,3aS,6aS)-1-(1H-Indole-2-carbonyl)-N—((S)-1-oxo-3-((S)-2-oxopyrrolidin-3-yl)propan-2-yl)octahydrocyclopenta[b]pyrrole-2-carboxamide] | 0.038 | 0.076 | 0.874 | 1.11 | 0.166 | – | 0.051 | 0.351
7 | CC(C)c1ccc(Cl)c2[nH]c(C(=O)N3C[C@H]4[C@@H]([C@H]3C(=O)N[C@H](C=O)C[C@@H]3CCNC3=O)C4(C)C)cc12 [Compound 88, (1R,2S,5S)-3-(7-Chloro-4-isopropyl-1H-indole-2-carbonyl)-6,6-dimethyl-N—((S)-1-oxo-3-((S)-2-oxopyrrolidin-3-yl)propan-2-yl)-3-azabicyclo[3.1.0]hexane-2-carboxamide] | 0.0415 | 0.0212 | 0.0462 | 0.239 | 0.0449 | 0.0403 | 0.0685 | –
8 | O=C[C@H](C[C@@H]1CCNC1=O)NC(=O)[C@@H]1CC2(CC2)CN1C(=O)c1cc2c(F)cccc2[nH]1 [Compound 3, (S)-5-(4-fluoro-1H-indole-2-carbonyl)-N—((S)-1-oxo-3-((S)-2-oxopyrrolidin-3-yl)propan-2-yl)-5-azaspiro[2.4]heptane-6-carboxamide] | 0.0274 | 0.00995 | 0.0193 | 0.11 | 0.025 | – | 0.0178 | 0.0101
9 | CC1(C)[C@@H]2[C@@H](C(=O)N[C@H](C#N)C[C@@H]3CCNC3=O)N(C(=O)c3cc4cccc(Cl)c4[nH]3)C[C@@H]21 [Compound 132, (1R,2S,5S)-3-(7-Chloro-1H-indole-2-carbonyl)-N—((S)-1-cyano-2-((S)-2-oxopyrrolidin-3-yl)ethyl)-6,6-dimethyl-3-azabicyclo[3.1.0]hexane-2-carboxamide] | 1.21 | 1.91 | 0.873 | 5.44 | 3.01 | – | 3.97 | 0.434
10 | CC1(C)C[C@@H](C(=O)N[C@H](C=O)C[C@@H]2CCNC2=O)N(C(=O)c2cc3cccc(F)c3[nH]2)C1 [Compound 62, (S)-1-(7-Fluoro-1H-indole-2-carbonyl)-4,4-dimethyl-N—((S)-1-oxo-3-((S)-2-oxopyrrolidin-3-yl)propan-2-yl)pyrrolidine-2-carboxamide] | 0.0644 | 0.0557 | 0.0771 | 0.535 | 0.145 | – | 0.0907 | 0.0263
11 | COc1ccc2cc(C(=O)N3C[C@H]4[C@@H]([C@H]3C(=O)N[C@H](C=O)C[C@@H]3CCNC3=O)C4(C)C)[nH]c2c1 [Compound 56, (1R,2S,5S)-3-(6-Methoxy-1H-indole-2-carbonyl)-6,6-dimethyl-N—((S)-1-oxo-3-((S)-2-oxopyrrolidin-3-yl)propan-2-yl)-3-azabicyclo[3.1.0]hexane-2-carboxamide] | 0.0426 | 0.0128 | 0.0647 | 0.291 | 0.0598 | – | 0.0599 | 0.0257
12 | CC(C)(C(=O)N1C[C@H]2[C@@H]([C@H]1C(=O)N[C@H](C=O)C[C@@H]1CCNC1=O)C2(C)C)c1ccccc1 [Compound 48, (1R,2S,5S)-6,6-dimethyl-3-(2-methyl-2-phenylpropanoyl)-N—((S)-1-oxo-3-((S)-2-oxopyrrolidin-3-yl)propan-2-yl)-3-azabicyclo[3.1.0]hexane-2-carboxamide] | 0.0869 | 0.0734 | 0.0536 | 0.484 | 0.164 | 0.0229 | 0.376 | –
13 | Cn1c(C(=O)N2C[C@H]3[C@@H]([C@H]2C(=O)N[C@H](C=O)C[C@@H]2CCNC2=O)C3(C)C)cc2c(F)cccc21 [Compound 100, (1R,2S,5S)-3-(4-Fluoro-1-methyl-1H-indole-2-carbonyl)-6,6-dimethyl-N—((S)-1-oxo-3-((S)-2-oxopyrrolidin-3-yl)propan-2-yl)-3-azabicyclo[3.1.0]hexane-2-carboxamide] | 0.106 | 0.0944 | 0.0925 | 0.877 | 0.133 | – | 0.398 | 0.054
14 | Cc1ccc2cc(C(=O)N3C[C@H]4[C@@H]([C@H]3C(=O)N[C@H](C=O)C[C@@H]3CCNC3=O)C4(C)C)[nH]c2c1 [Compound 72, (1R,2S,5S)-6,6-Dimethyl-3-(6-methyl-1H-indole-2-carbonyl)-N—((S)-1-oxo-3-((S)-2-oxopyrrolidin-3-yl)propan-2-yl)-3-azabicyclo[3.1.0]hexane-2-carboxamide] | 0.0301 | 0.0208 | 0.0589 | 0.346 | 0.0494 | – | 0.0217 | 0.0313
15 | CC1(C)[C@@H]2[C@@H](C(=O)N[C@H](C=O)C[C@@H]3CCCNC3=O)N(C(=O)CC3CCCCC3)C[C@@H]21 [Compound 79, (1R,2S,5S)-3-(2-Cyclohexylacetyl)-6,6-dimethyl-N—((S)-1-oxo-3-((S)-2-oxopiperidin-3-yl)propan-2-yl)-3-azabicyclo[3.1.0]hexane-2-carboxamide] | 0.0508 | 0.0271 | 0.0259 | 0.177 | 0.0386 | – | 0.0578 | 0.0345
16 | CO[C@H]1C[C@@H](C(=O)N[C@H](C=O)C[C@@H]2CCNC2=O)N(C(=O)c2cc3ccccc3[nH]2)C1 [Compound 102, (2S,4S)-1-(1H-Indole-2-carbonyl)-4-methoxy-N—((S)-1-oxo-3-((S)-2-oxopyrrolidin-3-yl)propan-2-yl)pyrrolidine-2-carboxamide] | 0.118 | 0.083 | 0.204 | 0.631 | 0.141 | – | 0.199 | 0.0632
